Values quoted from earlier work, collected in patent US20230310465A1, “NANO LIPID CARRIER SYSTEM FOR IMPROVING PERMEATION OF ACTIVE INGREDIENTS” (LEIUTIS PHARMACEUTICALS LLP, priority 2020, published 2023).

Settings: from Akynezo, healthy subjects

## Cc1ccccc1-c1cc(N2CCN(C)CC2)ncc1N(C)C(=O)C(C)(C)c1cc(C(F)(F)F)cc(C(F)(F)F)c1 [Netupitant, 2-[3,5-bis(trifluoromethyl)phenyl]-N,2-dimethyl-N-[4-(2methylphenyl)-6-(4-methylpiperazin-1-yl)pyridin-3-yl]propenamide]
  Tmax: about 5 hrs
